Source: patent US12521419B2, “Use of anti-aging glycopeptides to enhance pancreatic cell health, survival and improve transplant outcome” (Protokinetix Inc., priority 2014, dated 2026)

What was measured:
[1] = test system: human islets; assay: Intra-islet calcium concentration; type: cell-based; details: Tac−, Tac+AAGP groups
Protocol: Various electrophysiology studies were performed on human islets to elucidate a potential mechanism of action for the AAGP™ by characterizing the CNI-related injury and its avoidance.

[2] = test system: human islets; assay: Capacitance measurement as indicator of exocytosis upon high glucose stimulation; type: cell-based
Protocol: Complementary capacitance studies were performed with these same conditions as an indirect indicator of exocytosis upon high glucose stimulation.

[3] = test system: human islets transplanted under the kidney capsule; assay: Intra-graft apoptosis 24 h post-transplant (cleaved caspase-3, TUNEL); type: in vivo, immunodeficient mice; details: graft 24 h after transplant
Protocol: Apoptosis is measured in all groups using a cleaved caspase-3 spectrophotometric assay and Terminal deoxynucleotidyl transferase dUTP nick end labeling (TUNEL) staining. All determinations are made on normalized groups of 100 IEQ and their corresponding culture media.
Frozen media samples are used to determine cleaved caspase-3 increase using a spectrophotometric assay (EMD Millipore™. Billerica, MA, USA). Again, CMRL culture media alone with additives and no cells is used as a control, and results are expressed as fold-change increase compared to the control media.
For TUNEL staining (DeadEnd™ Apoptosis Detection System, Promega, Madison, WI), islets are fixed in formalin, processed and embedded in paraffin. Co-staining is performed to identify the graft (insulin), apoptotic cells and all nuclei present in the field. Apoptosis is quantified by percentage of positive TUNEL stained area using imageJ software.
Three mice per group underwent nephrectomy and are euthanized 24 hr post-transplant to perform acute determination of proinflammatory cytokines, cleaved capase-3 and TUNEL in the graft area. In all cases the islet graft is excised from the kidney, weighed, flash frozen in liquid nitrogen and stored at −80° C. […]

[4] = test system: human islets transplanted under the kidney capsule; assay: Long-term graft function of minimal mass human islet transplant (blood glucose, IPGTT, graft insulin content); type: in vivo, immunodeficient mice
Description: Eight to 12 week immunodeficient mice (B6.129S7-Rag1^tm1Mom) are obtained from the Jackson Laboratory (Bar Harbor, ME, USA) and housed under specific pathogen-free conditions with access to food and water ad libitum. Animals are cared for according to the guidelines of the Canadian Council on Animal Care, and ethical approval is obtained from the animal welfare committee at the University of Alberta.
Animals are considered diabetic after two consecutive blood glucose measurements are documented≥18 mmol/L.
Ten animals per group received approximately 1,000 IEQ human islets transplanted under the capsule of the left kidney as described previously (19).
Non-fasting blood glucose is monitored in the remaining 7 mice per group three times a week using a portable glucometer (OneTouch Ultra 2, LifeScan, Canada) over 60 days. Normoglycemia is defined when two consecutive readings are below 11.3 mmol/L.
Intraperitoneal Glucose-Tolerance Tests (IPGTT) are conducted 60 days post-transplant to evaluate the capacity of islets to respond to a glucose bolus (3 g/kg) after overnight fast. Blood glucose levels are monitored at baseline (Time 0, 15, 30, 60, 90 and 120 minutes post-injection). All results are compared to blood glucose profiles of naive control mice.
Non-fasting blood glucose levels are recorded for 1 week following nephrectomy. Likewise, the native pancreas is excised at the terminal endpoint, fixed in 10% formalin and analyzed with immunohistochemistry to confirm absence of mouse insulin staining, thus, eliminating residual or regeneration of native pancreatic beta cell function.
Preserved grafts are then processed as previously described and residual insulin content is determined using human insulin ELISA as a measure of surviving islets.

[5] = test system: syngeneic islet transplant; assay: Syngeneic full mass islet transplant with continuous tacrolimus treatment; type: in vivo, mouse
Description: FIG. 11 illustrates the post-transplant graft function in immunodefficient mice receiving minimal human islet mass (˜1000 IEQ). Islets were previously treated with AAGP™ and tracrolimus accordingly. […] The dotted line indicates graft recovery nephrectomy on day 60. B. Intraperitoneal glucose tolerance test (IPGTT) to evaluate metabolic response after receiving a glucose bolus. C. Insulin content of removed grafts after 60 days of transplant as an indication of residual islet mass. Data points represent mean±SEM adjusted per gram of tissue, (Tac− n=6, Tac+ n=3 and Tac+AAGP™ n=7), *p<0.05, **p<0.01 and ***p<0.001. D and E. Post-transplant graft function in mice receiving syngeneic full mass (˜500 IEQ) islet transplant. AAGP™ was added to the culture media 1 hour prior to transplant and tacrolimus was administered via a subcutaneous osmotic pump (implanted during the same procedure) at a continuous rate of 1 mg/kg/day. D. Pooled blood glucose profiles of animal over 40 days with clear dysfunction for Tac+ islets during the presence of Tac. Vertical dotted line indicates tacrolimus treatment cessation and marks a gradual recovery of Tac+ grafts. Horizontal continuous line at y=11 indicates the normoglycemia limit. Graft recovery nephrectomy was again performed on day 30. E. Mean time-to-euglycemia after transplant showing Tac+AAGP™ mice reversing diabetes earlier (p<0.001, log-rank, Mantel-cox test). […] These differences were not observed in the Tac+AAGP™ group.
To further support these findings a transplant experiment was performed in a syngeneic diabetic mouse transplant model with continuous treatment with tacrolimus to resemble clinical practice.
To make our experiments more clinically relevant, a new in vivo syngeneic mouse transplant model was performed, with tacrolimus as a continuous treatment by means of a subcutaneous osmotic pump. It was observed that the functional impairment of transplanted islets occurred immediately after starting administration of the CNI and lasted during the entire treatment period (7 days).

C=CC[C@@H]1/C=C(\C)C[C@H](C)C[C@H](OC)[C@H]2O[C@@](O)(C(=O)C(=O)N3CCCC[C@H]3C(=O)O[C@H](/C(C)=C/[C@@H]3CC[C@@H](O)[C@H](OC)C3)[C@H](C)[C@@H](O)CC1=O)[C@H](C)C[C@@H]2OC.O [Tac+, tacrolimus]
calcium concentration in islets [1]: neither tacrolimus nor AAGP™ affected the calcium concentration | cumulative capacitance area under the curve [2]: 39.08 | cleaved caspase-3, fold-change increase relative to kidneys of naïve mice ([3]; n=3): 3.14 | percentage of TUNEL positive cells ([3]; control 14.9%): 53.3% | IPGTT AUC ([4]; 60 days post-transplant, glucose bolus 3 g/kg, Tac− 92.63, naïve 71.43): 149.8 | insulin content of recovered graft ([4]; after 60 days of transplant): 30.86 ng/mL | blood glucose over 60 days post-transplant ([4]; marginal islet mass model, n=7 per group): all mice remained hyperglycemic | graft function / period to achieve euglycemia ([5]; AAGP in culture media 1 hour prior to transplant, tacrolimus 1 mg/kg/day by osmotic pump): unable to effectively secrete insulin and return animals to euglycemic state | IPGTT AUC under tacrolimus treatment ([5]; initial IPGTT (7 days), tacrolimus 1 mg/kg/day): 101
